Test results published in patent publication US7928264B2, “Aminoalcohol derivatives” (Astellas Pharma Inc., priority 2004, dated 2011).

Test system: increase in intravesical pressure induced by carbachol in anesthetized dog
Assay: Effect on the increase in intravesical pressure induced by carbachol in anesthetized dog
Type: in vivo
Settings: 0.032 mg/kg, administered intradermally 30 minutes before carbachol (1.8 μg/kg); female Beagle dogs under halothane anesthesia
Protocol: Effect on the increase in intravesical pressure induced by carbachol in anesthetized dog
Female Beagle dogs weighing 8.0-15.0 kg were fasted for 24 hours and maintained under halothane anesthesia. A 12F Foley catheter was lubricated with water soluble jelly, inserted into the urethral orifice, and advanced approximately 10 cm until the balloon tip was placed well inside the bladder. The balloon was then inflated with 5 ml of room air and catheter slowly withdrawn just part the first resistance that was felt at the bladder neck. Urine was completely drained out through the catheter, and 30 ml of biological saline was infused. The catheter was connected to pressure transducer, and intravesical pressure (IVP) was continuously recorded. The test compound was administered intradermally at 30 minutes before the administration of carbachol (1.8 μg/kg). Percent inhibition of IVP increase by test compound was calculated by dividing IVPa (IVP increase induced by carbachol after test compound administration) by IVPb (IVP increase induced by carbachol just before test compound administration).

Structure (SMILES): Cl.O=C(NS(=O)(=O)CCO)c1ccc(-c2ccc(CCNC[C@H](O)c3ccccc3)cc2)cc1OC1CCCCC1 [Test Compound (1), 3-(Cyclohexyloxy)-N-[(2-hydroxyethyl)sulfonyl]-4′-[2-[[(2R)-2-hydroxy-2-phenylethyl]amino]ethyl]-4-biphenylcarboxamide hydrochloride]
- Percent inhibition of IVP increase: 78%
